From PubChem BioAssay AID1963981 (Molecular Pharmacology Branch, DTP, NCI, 2024)
Where “and” joins values, the source holds several entries; their conditions need not be identical. Equal values may be shown once.

Test system: 354836-022-R-J1-PDC multicell spheroid viability
Assay: Anticancer human tumor 354836-022-R-J1-PDC patient-derived head and neck squamous cell carcinoma cell line growth inhibition [PI3K]
Conditions: for viability, T/C: stronger effect = lower value
Summary of the method: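 Tumor cells grown as multi-cell spheroids with HUVEC endothelial cells and MSC fibroblast-like stroma were treated with targeted agents combined with inavolisib, alpelisib, duvelisib or copanlisib. Doses fell in half-log steps from near clinical Cmax, else from 10 microM. Viability was measured.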

[1] = curve of first compound, second compound 0.0316 µM
[2] = curve of first compound, second compound 0.1 µM
[3] = curve of first compound, second compound 0.316 µM
[4] = curve of first compound, second compound 1 µM
[5] = curve of first compound, second compound 3.16 µM
[6] = curve of first compound, second compound 10 µM
[7] = second compound 0.0316 µM, first compound 0.0316 µM
[8] = second compound 0.0316 µM, first compound 0.1 µM
[9] = second compound 0.0316 µM, first compound 0.316 µM
[10] = second compound 0.0316 µM, first compound 1 µM
[11] = second compound 0.0316 µM, first compound 3.16 µM
[12] = second compound 0.0316 µM, first compound 10 µM
[13] = second compound 0.1 µM, first compound 0.0316 µM
[14] = second compound 0.1 µM, first compound 0.1 µM
[15] = second compound 0.1 µM, first compound 0.316 µM
[16] = second compound 0.1 µM, first compound 1 µM
[17] = second compound 0.1 µM, first compound 3.16 µM
[18] = second compound 0.1 µM, first compound 10 µM
[19] = second compound 0.316 µM, first compound 0.0316 µM
[20] = second compound 0.316 µM, first compound 0.1 µM
[21] = second compound 0.316 µM, first compound 0.316 µM
[22] = second compound 0.316 µM, first compound 1 µM
[23] = second compound 0.316 µM, first compound 3.16 µM
[24] = second compound 0.316 µM, first compound 10 µM
[25] = second compound 1 µM, first compound 0.0316 µM
[26] = second compound 1 µM, first compound 0.1 µM
[27] = second compound 1 µM, first compound 0.316 µM
[28] = second compound 1 µM, first compound 1 µM
[29] = second compound 1 µM, first compound 3.16 µM
[30] = second compound 1 µM, first compound 10 µM
[31] = second compound 3.16 µM, first compound 0.0316 µM
[32] = second compound 3.16 µM, first compound 0.1 µM
[33] = second compound 3.16 µM, first compound 0.316 µM
[34] = second compound 3.16 µM, first compound 1 µM
[35] = second compound 3.16 µM, first compound 3.16 µM
[36] = second compound 3.16 µM, first compound 10 µM
[37] = second compound 10 µM, first compound 0.0316 µM
[38] = second compound 10 µM, first compound 0.1 µM
[39] = second compound 10 µM, first compound 0.316 µM
[40] = second compound 10 µM, first compound 1 µM
[41] = second compound 10 µM, first compound 3.16 µM
[42] = second compound 10 µM, first compound 10 µM
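Further: spheroids exposed to agents for seven days before the viability read.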

CC1(C)CCC(CN2CCN(c3ccc(C(=O)NS(=O)(=O)c4ccc(NCC5CCOCC5)c([N+](=O)[O-])c4)c(Oc4cnc5[nH]ccc5c4)c3)CC2)=C(c2ccc(Cl)cc2)C1 + Cc1nc(NC(=O)N2CCCC2C(N)=O)sc1-c1ccnc(C(C)(C)C(F)(F)F)c1
IC50 [1]: 4.53 µM | IC50 [2]: 4.08 µM | IC50 [3]: 4.27 µM | IC50 [4]: 4.31 µM | IC50 [5]: 2.74 µM | IC50 [6]: < 0.0316 µM | viability, T/C [7]: 99.3% | viability, T/C [8]: 82.3% | viability, T/C [9]: 94.3% | viability, T/C [10]: 91.7% | viability, T/C [11]: 70.1% | viability, T/C [12]: 5.83% | viability, T/C [13]: 109% | viability, T/C [14]: 93% | viability, T/C [15]: 97.1% | viability, T/C [16]: 100% | viability, T/C [17]: 63% | viability, T/C [18]: 4.78% | viability, T/C [19]: 99.7% | viability, T/C [20]: 86.4% | viability, T/C [21]: 79.5% | viability, T/C [22]: 91.9% | viability, T/C [23]: 65.4% | viability, T/C [24]: 6.04% | viability, T/C [25]: 83.7% | viability, T/C [26]: 79.6% | viability, T/C [27]: 88.4% | viability, T/C [28]: 79.7% | viability, T/C [29]: 67% | viability, T/C [30]: 4.76% | viability, T/C [31]: 68.3% | viability, T/C [32]: 66.5% | viability, T/C [33]: 72.1% | viability, T/C [34]: 60.8% | viability, T/C [35]: 48.8% | viability, T/C [36]: 4.11% | viability, T/C [37]: 38.1% | viability, T/C [38]: 39.8% | viability, T/C [39]: 43.8% | viability, T/C [40]: 37.4% | viability, T/C [41]: 34.6% | viability, T/C [42]: 7.88%

C#Cc1c(F)ccc2cc(O)cc(-c3ncc4c(N5CC6CCC(C5)N6)nc(OCC56CCCN5CC(F)C6)nc4c3F)c12 (stereo unspecified) + CC(Nc1ncnc2nc[nH]c12)c1cc2cccc(Cl)c2c(=O)n1-c1ccccc1
IC50 [1]: > 10 µM | IC50 [2]: > 10 µM | IC50 [3]: > 10 µM | IC50 [4]: > 10 µM | IC50 [5]: > 10 µM | IC50 [6]: > 10 µM | viability, T/C [7]: 94.8% | viability, T/C [8]: 85% | viability, T/C [9]: 88.6% | viability, T/C [10]: 105% | viability, T/C [11]: 85.5% | viability, T/C [12]: 96.4% | viability, T/C [13]: 84.9% | viability, T/C [14]: 105% | viability, T/C [15]: 96.4% | viability, T/C [16]: 96.2% | viability, T/C [17]: 110% | viability, T/C [18]: 102% | viability, T/C [19]: 85.4% | viability, T/C [20]: 110% | viability, T/C [21]: 103% | viability, T/C [22]: 108% | viability, T/C [23]: 98.3% | viability, T/C [24]: 89.9% | viability, T/C [25]: 91.1% | viability, T/C [26]: 86.9% | viability, T/C [27]: 100% | viability, T/C [28]: 92.3% | viability, T/C [29]: 96.4% | viability, T/C [30]: 74.9% | viability, T/C [31]: 95.4% | viability, T/C [32]: 105% | viability, T/C [33]: 96.3% | viability, T/C [34]: 110% | viability, T/C [35]: 99% | viability, T/C [36]: 70% | viability, T/C [37]: 95.3% | viability, T/C [38]: 82.5% | viability, T/C [39]: 84.5% | viability, T/C [40]: 80.8% | viability, T/C [41]: 78.4% | viability, T/C [42]: 75.1%

CNC(=O)c1ccc(N2C(=S)N(c3ccc(C#N)c(C(F)(F)F)c3)C(=O)C2(C)C)cc1F
viability, T/C (compound 0.0316 µM): 106% [middle of 4 runs] | viability, T/C (compound 0.1 µM): 102% [middle of 4 runs] | viability, T/C (compound 0.316 µM): 96.3% and 107% (2×) and 116% | viability, T/C (compound 1 µM): 100% [middle of 4 runs] | viability, T/C (compound 3.16 µM): 99.1% and 122% and 104% (2×) | viability, T/C (compound 10 µM): 96.7% [middle of 4 runs] | IC50 (curve of compound): > 10 µM
